Assay [1] is described as follows: urine and electrolyte excretion, oral water load method. The format is in vivo. The following applies: rat, over 5 hours; for Amount of urine: average ± standard deviation. On the procedure:
Using rats, five per group, the amount of urine and the amount of electrolytes (sodium, potassium) excreted were measured over 5 hours after oral administration of each of the drugs by an oral water load method. Each of the test drugs was suspended in a 0.5% carboxymethyl cellulose solution and orally administered. Each of the numerical values given in the table is an average value ± standard deviation.

Assay [2] relates to Femoral blood flow (femoral artery). As to the kind of experiment: femoral blood flow in anesthetized dogs. The class given is in vivo, dog. The following applies: 1 to 300 μg/kg, *: an increase of about 10% as low doses, and a decrease of about 20% at high doses. On the procedure: Adult dogs were anesthetized with 30 mg/kg of pentobarbital administered intravenously and ventilated artificially. The effect of the compounds Ia and Ib on hemodynamic parameters was investigated. Drugs were used dissolved in 0.1 N hydrochloric acid and administered over the 1 to 300 μg/kg dose range.
Measured with an electromagnetic flowmeter probe placed on the femoral artery.

Assay [3] has as its target T1, isoproterenol, atrium dextrum and atrium sinistrum (Cavia porcellus, UniProt H0W3H1).
T1 construct: Using the atrium dextrum and atrium sinistrum of a guinea pig; from tissue; host or cells: guinea pig right and left atria
As to the kind of experiment: isolated atrium cordis samples, antagonistic action on isoproterenol (Magnus method). The following applies: guinea pig atrium, vs isoproterenol; reciprocal logarithm of molar concentration. How it is done:
(§1) Each of the test drugs was used in a concentration of 10^-9 to 4×10^-4 mole/1000 ml (M).
(1) Isolated atrium cordis samples
Using the atrium dextrum and atrium sinistrum of a guinea pig, the contractile force and rhythem were recorded, and the antagonistic action of the test drugs on isoproterenol was examined.

The target in a further assay is T2, isoproterenol, bronchus (Cavia porcellus, UniProt Q8K4Z4).
T2 construct: Using the bronchus of a guinea pig; from tissue; host or cells: guinea pig bronchus
As to the kind of experiment: isolated bronchus sample, antagonistic action on isoproterenol (Magnus method). The following applies: guinea pig bronchus, vs isoproterenol, reciprocal logarithm of molar concentration. On the procedure:
as §1
(2) Isolated bronchus sample
Using the bronchus of a guinea pig, the antagonistic action of the test drugs on isoproterenol was examined.

In assay [4] the test system is potassium contracture, left circumflex branch (coronary artery). As to the kind of experiment: isolated coronary artery, action on potassium contracture (Magnus method). The following applies: dog coronary artery, 50% inhibition of maximum reaction, reciprocal logarithm of molar concentration. How it is done: Each of the test drugs was used in a concentration of 10^-9 to 4×10^-4 mole/1000 ml (M). (3) Isolated coronary artery Using the left circumflex branch of a dog, the action of the test drugs on potassium contracture was examined.

Assay [5] concerns potassium contracture, portal vein. As to the kind of experiment: isolated portal vein, action on potassium contracture (Magnus method). The following applies: dog portal vein, 50% inhibition of maximum reaction, reciprocal logarithm of molar concentration. How it is done:
(§2) The activities of the compounds Ia and Ib on various isolated smooth muscles were examined by the Magnus method. Each of the test drugs was used in a concentration of 10^-9 to 4×10^-4 mole/1000 ml (M).
Using an isolated portal vein of a dog, the action of the test drugs on potassium contracture was examined.

Assay [6] has as its system potassium contracture, saphenous vein. As to the kind of experiment: isolated saphenous vein, action on potassium contracture (Magnus method). The following applies: dog saphenous vein, 50% inhibition of maximum reaction, reciprocal logarithm of molar concentration. On the procedure:
as §2
(5) Isolated saphenous vein
Using an isolated saphenous vein of a dog, the action of the test drugs on potassium contracture was examined.

The test system of assay [7] is potassium contracture, mesenteric artery. As to the kind of experiment: isolated mesenteric artery, antagonistic action on potassium contracture (Magnus method). The following applies: dog mesenteric artery, 50% inhibition of maximum reaction, reciprocal logarithm of molar concentration. On the procedure: as §2
(§3) (6) Isolated mesenteric artery
(§4) Using an isolated mesenteric artery of a dog, the antagonistic action of the test drugs on (a) potassium contracture and (b) norepinephirine was examined.

Assay [8] relates to norepinephirine, mesenteric artery. As to the kind of experiment: isolated mesenteric artery, antagonistic action on norepinephrine (Magnus method). The following applies: dog mesenteric artery, vs norepinephrine; reciprocal logarithm of molar concentration. How it is done: as §2, §3, §4
Assay [9] concerns various isolated smooth muscles. Put plainly: activities on various isolated smooth muscles, overall (Magnus method). On the procedure: as §2
Where [10] appears, read: 30 mg/kg, controls 22.5 ± 1.4 and (second set) 19.4 ± 4.0.
The mark [11] stands for this setting: 30 mg/kg, controls 0.18 ± 0.04 and (second set) 0.21 ± 0.08.
[12] abbreviates: 30 mg/kg, controls 0.53 ± 0.15 and (second set) 0.55 ± 0.14.
Setting [13] is: 30 mg/kg, controls 3.08 ± 0.27 and (second set) 2.76 ± 0.83.

Counter-ions that a name gives are not always drawn.

T2 sequence (Q8K4Z4 whole entry): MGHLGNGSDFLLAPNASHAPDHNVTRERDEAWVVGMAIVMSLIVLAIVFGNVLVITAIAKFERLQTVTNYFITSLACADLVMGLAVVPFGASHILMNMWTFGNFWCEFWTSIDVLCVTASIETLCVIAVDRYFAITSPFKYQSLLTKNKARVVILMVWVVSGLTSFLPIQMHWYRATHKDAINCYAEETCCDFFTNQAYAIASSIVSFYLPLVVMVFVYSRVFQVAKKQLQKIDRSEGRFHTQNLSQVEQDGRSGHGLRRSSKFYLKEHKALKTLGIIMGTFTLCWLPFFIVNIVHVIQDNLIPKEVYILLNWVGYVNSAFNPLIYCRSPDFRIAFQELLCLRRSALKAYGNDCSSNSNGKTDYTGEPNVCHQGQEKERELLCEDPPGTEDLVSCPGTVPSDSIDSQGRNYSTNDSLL
T1 sequence (H0W3H1 1-470): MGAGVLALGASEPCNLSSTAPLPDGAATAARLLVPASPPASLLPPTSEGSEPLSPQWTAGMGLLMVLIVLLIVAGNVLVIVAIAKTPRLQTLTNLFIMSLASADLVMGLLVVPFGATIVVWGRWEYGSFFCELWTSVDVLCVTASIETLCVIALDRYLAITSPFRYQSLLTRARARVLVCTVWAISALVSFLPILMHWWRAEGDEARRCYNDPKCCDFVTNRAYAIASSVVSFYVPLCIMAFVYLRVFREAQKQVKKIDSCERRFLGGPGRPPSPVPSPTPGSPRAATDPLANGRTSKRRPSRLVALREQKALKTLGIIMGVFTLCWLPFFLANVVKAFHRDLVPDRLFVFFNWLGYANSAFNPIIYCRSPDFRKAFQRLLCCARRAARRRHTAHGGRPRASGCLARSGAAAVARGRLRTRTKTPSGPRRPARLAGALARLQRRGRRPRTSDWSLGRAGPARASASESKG

In the case of `NS(=O)(=O)c1cc2c(cc1Cl)NC(C(Cl)Cl)NS2(=O)=O` (centres unmarked) [Comparative drug II, trichlormethiazide, reference compound], the Amount of urine in [1] (setting [10]) came to 34.8 ± 1.7 mL/kg. The same molecule had a K/Na in [1] (setting [11]) of 0.21 ± 0.04. This molecule also registered a K excreted in assay [1] (setting [12]) of 1.12 ± 0.18 mEq/kg. The molecule also showed a Na excreted in [1] (setting [13]) of 5.36 ± 0.42 mEq/kg.

For `CC(C)NCC(O)COc1cccc2ccccc12` (centres unmarked) [Comparative drug I, propranolol hydrochloride, reference compound], in [1] (setting [10]), the Amount of urine was 27.8 ± 3.7 mL/kg. In assay [1] (setting [11]), this molecule registered a K/Na of 0.21 ± 0.04. This molecule showed a K excreted in assay [1] (setting [12]) of 0.70 ± 0.11 mEq/kg. The Na excreted in assay [1] (setting [13]) is listed as 3.42 ± 0.28 mEq/kg.

Molecule `CC(C)NCC(O)COc1cccc2c1OCC(CO[N+](=O)[O-])C2` (centres unmarked) [Compound Ib, 3,4-dihydro-8-[(2-hydroxy-3-isopropylamino)propoxy]-3-nitratomethyl-2H-benzopyran] yielded an Amount of urine in assay [1] (setting [10]) of 32.6 ± 4.5 mL/kg. In assay [1] (setting [11]), this molecule came in with a K/Na of 0.21 ± 0.08. The molecule also displayed a K excreted in assay [1] (setting [12]) of 0.83 ± 0.36 mEq/kg. For the same molecule, the Na excreted in assay [1] (setting [13]) was 3.87 ± 0.64 mEq/kg. In [2], the “(8) Femoral blood flow*” value was “+~-”. Moreover, the “(1) pA2” value in assay [3] stood at 7.83. Further, the Kb at isoproterenol, bronchus (read-out: (2) pA2 (converted)) was 5.13 nM. The “(3) pD'2” value in assay [4] is 5.7. The “(4) pD'2” value in [5] is 6.2. Also, in [6], the “(5) pD'2” value was 6.2. Besides, the “(6) (a) pD'2” value in assay [7] came to 5.6. Further, the “(6) (b) pA2” value in [8] was found to be 6.4.

With `CC(C)NCC(O)COc1cccc2c1OCC(O[N+](=O)[O-])C2` (centres unmarked) [Compound Ia, 3,4-dihydro-8-[(2-hydroxy-3-isopropylamino)propoxy]-3-nitrato-2H-benzopyran], the Amount of urine in [1] (10 mg/kg, control 22.5 ± 1.4) worked out at 24.2 ± 2.2 mL/kg; in assay [1] (setting [10]), 31.1 ± 3.2 mL/kg; in [1] (100 mg/kg, control 19.4 ± 4.0), 34.0 ± 3.7 mL/kg. The K excreted in assay [1] (10 mg/kg, control 0.53 ± 0.15) amounted to 0.61 ± 0.20 mEq/kg; in assay [1] (setting [12]), 0.91 ± 0.23 mEq/kg; in assay [1] (100 mg/kg, control 0.55 ± 0.14), 0.14 ± 0.45 mEq/kg. Also, the Na excreted in [1] (10 mg/kg, control 3.08 ± 0.27) is 3.25 ± 0.18 mEq/kg; in [1] (setting [13]) it was 4.18 ± 0.56 mEq/kg; in assay [1] (100 mg/kg, control 2.76 ± 0.83), 3.69 ± 0.33 mEq/kg. In addition, the K/Na in [1] (setting [11]) was found to be 0.20 ± 0.05; in [1] (100 mg/kg, control 0.21 ± 0.08), 0.30 ± 0.10; in assay [1] (control 0.18 ± 0.04), 0.19 ± 0.07. Further, the “(8) Femoral blood flow*” value in assay [2] is reported as “+~-”. The “(1) pA2” value in [3] amounted to 9.1. Besides, at isoproterenol, bronchus, the “(2) pA2” value is on record as 9.1-9.2. The “(3) pD'2” value in assay [4] is 6.2-6.3. Further, in assay [5], the “(4) pD'2” value is given as 6.3-6.4. The “(5) pD'2” value in assay [6] is on record as 5.8-6.0. The “(6) (a) pD'2” value in assay [7] is reported as 5.2-5.3. Also, the “(6) (b) pA2” value in assay [8] is 7.0-7.1. For the same molecule, in assay [9], the “β- and α-blocking activities” value was “strong β- and α-blocking activities”.

(Values after patent publication US4394382A, “Dihydrobenzopyran compounds and pharmaceutical composition comprising said compounds” (Kowa Company, Ltd., priority 1980, dated 1983).)
